Measured values as given in US20220119354A1, “DIAMINO-SUBSTITUTED PYRIDINES AND PYRIMIDINES AS HERBICIDES” (FMC Corporation, priority 2019, published 2022).

Experiments:
Type in all cases: in vivo
[1] = tested on: barnyardgrass (Echinochloa crus-galli); assay: Test A preemergence, barnyardgrass; conditions: 0 to 100 scale
Summary of the method: (§1)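 Plants grown in a loam soil and sand blend were treated either preemergence by directed soil spray or postemergence when 2 to 10 cm tall (one- to two-leaf stage). Formulation: non-phytotoxic solvent mixture with surfactant. Greenhouse hold ~10 d, then visual injury assessment on a 0–100 scale.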

kochia (Kochia scoparia) [2] = assay: Test A preemergence, kochia; conditions: 0 to 100 scale
Summary of the method: as §1

[3] = tested on: ragweed (common ragweed, Ambrosia elatior); assay: Test A preemergence, ragweed; conditions: 0 to 100 scale
Summary of the method: as §1

[4] = tested on: ryegrass, Italian (Lolium multiflorum); assay: Test A preemergence, Italian ryegrass; conditions: 0 to 100 scale
Summary of the method: as §1

[5] = tested on: foxtail, giant (Setaria faberii); assay: Test A preemergence, giant foxtail; conditions: 0 to 100 scale
Summary of the method: as §1

[6] = tested on: pigweed (Amaranthus retroflexus); assay: Test A preemergence, pigweed; conditions: 0 to 100 scale
Summary of the method: as §1

[7] = tested on: barnyardgrass (Echinochloa crus-galli); assay: Test A postemergence, barnyardgrass; conditions: 0 to 100 scale
Summary of the method: as §1

kochia (Kochia scoparia) [8] = assay: Test A postemergence, kochia; conditions: 0 to 100 scale
Summary of the method: as §1

[9] = tested on: ragweed (common ragweed, Ambrosia elatior); assay: Test A postemergence, ragweed; conditions: 0 to 100 scale
Summary of the method: as §1

[10] = tested on: ryegrass, Italian (Lolium multiflorum); assay: Test A postemergence, Italian ryegrass; conditions: 0 to 100 scale
Summary of the method: as §1

[11] = tested on: foxtail, giant (Setaria faberii); assay: Test A postemergence, giant foxtail; conditions: 0 to 100 scale
Summary of the method: as §1

[12] = tested on: pigweed (Amaranthus retroflexus); assay: Test A postemergence, pigweed; conditions: 0 to 100 scale
Summary of the method: as §1

[13] = tested on: wheat (Triticum aestivum); assay: Test A postemergence, wheat; conditions: 0 to 100 scale
Summary of the method: as §1

corn (Zea mays) = assay: Test A postemergence, corn; conditions: 0 to 100 scale
Summary of the method: as §1

[14] = tested on: blackgrass (Alopecurus myosuroides); assay: Test A postemergence, blackgrass; conditions: 0 to 100 scale
Summary of the method: as §1

[15] = tested on: galium (catchweed bedstraw, Galium aparine); assay: Test A postemergence, galium; conditions: 0 to 100 scale
Summary of the method: as §1

rice (Oryza sativa) = assay: Test B flooded paddy test, rice; conditions: Flood, 250 g ai/ha, applied to paddy water, 2-leaf stage, visual evaluation after 13 to 15 d
Summary of the method: (§2)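 Visual injury scores run from 0 (no effect) to 100 (complete control), assigned by comparison with controls 13 to 15 d after treatment. Treatment went into floodwater standing 3 cm over the soil of pots holding 2-leaf plants.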

[16] = tested on: sedge, umbrella (small-flower umbrella sedge, Cyperus difformis); assay: Test B flooded paddy test, umbrella sedge; conditions: Flood, 250 g ai/ha, applied to paddy water, 2-leaf stage, visual evaluation after 13 to 15 d
Summary of the method: as §2

[17] = tested on: ducksalad (Heteranthera limosa); assay: Test B flooded paddy test, ducksalad; conditions: Flood, 250 g ai/ha, applied to paddy water, 2-leaf stage, visual evaluation after 13 to 15 d
Summary of the method: as §2

[18] = tested on: barnyardgrass (Echinochloa crus-galli); assay: Test B flooded paddy test, barnyardgrass; conditions: Flood, 250 g ai/ha, applied to paddy water, 2-leaf stage, visual evaluation after 13 to 15 d
Summary of the method: as §2

Compound	Plant response rating, Barnyardgrass ([1]; 125 g ai/ha)	Plant response rating, Barnyardgrass ([1]; 500 g ai/ha)	Plant response rating, Kochia (kochia (Kochia scoparia) [2]; 125 g ai/ha)	Plant response rating, Kochia (kochia (Kochia scoparia) [2]; 500 g ai/ha)	Plant response rating, Ragweed ([3]; 125 g ai/ha)	Plant response rating, Ragweed ([3]; 500 g ai/ha)	Plant response rating, Ryegrass, Italian ([4]; 125 g ai/ha)	Plant response rating, Ryegrass, Italian ([4]; 500 g ai/ha)	Plant response rating, Foxtail, Giant ([5]; 125 g ai/ha)	Plant response rating, Foxtail, Giant ([5]; 500 g ai/ha)	Plant response rating, Pigweed ([6]; 125 g ai/ha)	Plant response rating, Pigweed ([6]; 500 g ai/ha)	Plant response rating, Barnyardgrass ([7]; 125 g ai/ha)	Plant response rating, Barnyardgrass ([7]; 500 g ai/ha)	Plant response rating, Kochia (kochia (Kochia scoparia) [8]; 125 g ai/ha)	Plant response rating, Kochia (kochia (Kochia scoparia) [8]; 500 g ai/ha)	Plant response rating, Ragweed ([9]; 125 g ai/ha)	Plant response rating, Ragweed ([9]; 500 g ai/ha)	Plant response rating, Ryegrass, Italian ([10]; 125 g ai/ha)	Plant response rating, Ryegrass, Italian ([10]; 500 g ai/ha)	other results
C[C@@H](Nc1ncc(C(F)(F)F)c(N)n1)c1cc2cc(F)ccc2o1 [Compound 9]	80	80	60	70	0	90	0	50	40	90	100	100	10	70	80	90	60	80	0	30	Plant response rating, Foxtail, Giant ([11]; 125 g ai/ha): 0; Plant response rating, Foxtail, Giant ([11]; 500 g ai/ha): 90; Plant response rating, Pigweed ([12]; 125 g ai/ha): 90; Plant response rating, Pigweed ([12]; 500 g ai/ha): 90; Plant response rating, Wheat ([13]; 125 g ai/ha): 0; Plant response rating, Wheat ([13]; 500 g ai/ha): 0; Plant response rating, Corn (corn (Zea mays); 125 g ai/ha): 0; Plant response rating, Corn (corn (Zea mays); 500 g ai/ha): 20; Plant response rating, Blackgrass ([14]; 125 g ai/ha): 0; Plant response rating, Blackgrass ([14]; 500 g ai/ha): 30; Plant response rating, Galium ([15]; 125 g ai/ha): 80; Plant response rating, Galium ([15]; 500 g ai/ha): 80; Plant response rating, Rice (0 to 100 scale, 0 is no effect, 100 is complete control) (rice (Oryza sativa)): 0; Plant response rating, Sedge, Umbrella (0 to 100 scale, 0 is no effect, 100 is complete control) [16]: 0; Plant response rating, Ducksalad (0 to 100 scale, 0 is no effect, 100 is complete control) [17]: 0; Plant response rating, Barnyardgrass (0 to 100 scale, 0 is no effect, 100 is complete control) [18]: 0
Cc1ccc2oc([C@@H](C)Nc3ncc(C(F)(F)F)c(N)n3)cc2c1 [Compound 10]	20	30	0	0	0	50	0	20	0	60	0	60	0	20	0	0	20	80	0	0	Plant response rating, Foxtail, Giant ([11]; 125 g ai/ha): 0; Plant response rating, Foxtail, Giant ([11]; 500 g ai/ha): 40; Plant response rating, Pigweed ([12]; 125 g ai/ha): 80; Plant response rating, Pigweed ([12]; 500 g ai/ha): 90; Plant response rating, Wheat ([13]; 125 g ai/ha): 0; Plant response rating, Wheat ([13]; 500 g ai/ha): 0; Plant response rating, Corn (corn (Zea mays); 125 g ai/ha): 0; Plant response rating, Corn (corn (Zea mays); 500 g ai/ha): 0; Plant response rating, Blackgrass ([14]; 125 g ai/ha): 0; Plant response rating, Blackgrass ([14]; 500 g ai/ha): 20; Plant response rating, Galium ([15]; 125 g ai/ha): 50; Plant response rating, Galium ([15]; 500 g ai/ha): 70; Plant response rating, Rice (0 to 100 scale, 0 is no effect, 100 is complete control) (rice (Oryza sativa)): 0; Plant response rating, Sedge, Umbrella (0 to 100 scale, 0 is no effect, 100 is complete control) [16]: 0; Plant response rating, Ducksalad (0 to 100 scale, 0 is no effect, 100 is complete control) [17]: 0; Plant response rating, Barnyardgrass (0 to 100 scale, 0 is no effect, 100 is complete control) [18]: 0
